# Test system: 422866-222-R5-J1-PDC spheroid viability
# Assay: Anticancer human tumor 422866-222-R5-J1-PDC patient-derived pancreatic adenocarcinoma cell line growth inhibition [CLK]
# Details: spheroids with HUVEC and MSC; for IC50: curve of first compound; for viability, T/C: stronger effect = lower value
# Procedure, shortened: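 Multi-cell-type spheroids combined patient-derived tumor cells with HUVEC endothelial cells and human mesenchymal stem cells. Paired agents were dosed in half-log steps down from about clinical Cmax, or from 10 microM where Cmax was unknown.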
# [1] = second compound 0.0316 µM, first compound 0.00316 µM
# [2] = second compound 0.0316 µM, first compound 0.01 µM
# [3] = second compound 0.0316 µM, first compound 0.0316 µM
# [4] = second compound 0.0316 µM, first compound 0.1 µM
# [5] = second compound 0.1 µM, first compound 0.00316 µM
# [6] = second compound 0.1 µM, first compound 0.01 µM
# [7] = second compound 0.1 µM, first compound 0.0316 µM
# [8] = second compound 0.1 µM, first compound 0.1 µM
# [9] = second compound 0.316 µM, first compound 0.00316 µM
# [10] = second compound 0.316 µM, first compound 0.01 µM
# [11] = second compound 0.316 µM, first compound 0.0316 µM
# [12] = second compound 0.316 µM, first compound 0.1 µM
# [13] = second compound 1 µM, first compound 0.00316 µM
# [14] = second compound 1 µM, first compound 0.01 µM
# [15] = second compound 1 µM, first compound 0.0316 µM
# [16] = second compound 1 µM, first compound 0.1 µM
# [17] = second compound 3.16 µM, first compound 0.00316 µM
# [18] = second compound 3.16 µM, first compound 0.01 µM
# [19] = second compound 3.16 µM, first compound 0.0316 µM
# [20] = second compound 3.16 µM, first compound 0.1 µM
# [21] = second compound 10 µM, first compound 0.00316 µM
# [22] = second compound 10 µM, first compound 0.01 µM
# [23] = second compound 10 µM, first compound 0.0316 µM
# [24] = second compound 10 µM, first compound 0.1 µM
# 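Note: spheroids exposed to agents for seven days before readout.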
compound,measurement,setting,value
CCc1c2c(nc3ccc(O)cc13)-c1cc3c(c(=O)n1C2)COC(=O)[C@]3(O)CC + CNC(=O)c1ccc(Nc2nc(OC3CCCC3)c3c(-c4ccc5nc(C)oc5c4)c[nH]c3n2)c(OC)c1,IC50,second compound 0.0316 µM,< 0.00316 µM
same,IC50,second compound 0.1 µM,< 0.00316 µM
same,IC50,second compound 0.316 µM,< 0.00316 µM
same,IC50,second compound 1 µM,< 0.00316 µM
same,IC50,second compound 3.16 µM,< 0.00316 µM
same,IC50,second compound 10 µM,< 0.00316 µM
same,"viability, T/C",[1],45.6%
same,"viability, T/C",[2],46.4%
same,"viability, T/C",[3],51%
same,"viability, T/C",[4],46.5%
same,"viability, T/C","second compound 0.0316 µM, first compound 0.316 µM",42.7%
same,"viability, T/C","second compound 0.0316 µM, first compound 1 µM",16.4%
same,"viability, T/C",[5],49.1%
same,"viability, T/C",[6],43.8%
same,"viability, T/C",[7],40.2%
same,"viability, T/C",[8],38%
same,"viability, T/C","second compound 0.1 µM, first compound 0.316 µM",40%
same,"viability, T/C","second compound 0.1 µM, first compound 1 µM",19.6%
same,"viability, T/C",[9],42.3%
same,"viability, T/C",[10],33.2%
same,"viability, T/C",[11],30.9%
same,"viability, T/C",[12],38.5%
same,"viability, T/C","second compound 0.316 µM, first compound 0.316 µM",27.6%
same,"viability, T/C","second compound 0.316 µM, first compound 1 µM",24.5%
same,"viability, T/C",[13],46.8%
same,"viability, T/C",[14],28.1%
same,"viability, T/C",[15],38.2%
same,"viability, T/C",[16],42.4%
same,"viability, T/C","second compound 1 µM, first compound 0.316 µM",20.8%
same,"viability, T/C","second compound 1 µM, first compound 1 µM",25.8%
same,"viability, T/C",[17],41.9%
same,"viability, T/C",[18],38.7%
same,"viability, T/C",[19],33%
same,"viability, T/C",[20],39.8%
same,"viability, T/C","second compound 3.16 µM, first compound 0.316 µM",22.6%
same,"viability, T/C","second compound 3.16 µM, first compound 1 µM",23.3%
same,"viability, T/C",[21],31.2%
same,"viability, T/C",[22],27.5%
same,"viability, T/C",[23],38.4%
same,"viability, T/C",[24],32.7%
same,"viability, T/C","second compound 10 µM, first compound 0.316 µM",23.7%
same,"viability, T/C","second compound 10 µM, first compound 1 µM",28.7%
Cn1ncnc1[C@H]1c2n[nH]c(=O)c3cc(F)cc(c23)N[C@@H]1c1ccc(F)cc1 + CNC(=O)c1ccc(Nc2nc(OC3CCCC3)c3c(-c4ccc5nc(C)oc5c4)c[nH]c3n2)c(OC)c1,IC50,second compound 0.0316 µM,> 0.1 µM
same,IC50,second compound 0.1 µM,> 0.1 µM
same,IC50,second compound 0.316 µM,> 0.1 µM
same,IC50,second compound 1 µM,> 0.1 µM
same,IC50,second compound 3.16 µM,> 0.1 µM
same,IC50,second compound 10 µM,> 0.1 µM
same,"viability, T/C","second compound 0.0316 µM, first compound 0.000316 µM",105%
same,"viability, T/C","second compound 0.0316 µM, first compound 0.001 µM",112%
same,"viability, T/C",[1],102%
same,"viability, T/C",[2],91.2%
same,"viability, T/C",[3],89.6%
same,"viability, T/C",[4],78.6%
same,"viability, T/C","second compound 0.1 µM, first compound 0.000316 µM",98.8%
same,"viability, T/C","second compound 0.1 µM, first compound 0.001 µM",91%
same,"viability, T/C",[5],84.2%
same,"viability, T/C",[6],89.8%
same,"viability, T/C",[7],74.8%
same,"viability, T/C",[8],83.8%
same,"viability, T/C","second compound 0.316 µM, first compound 0.000316 µM",84.8%
same,"viability, T/C","second compound 0.316 µM, first compound 0.001 µM",75.2%
same,"viability, T/C",[9],66.3%
same,"viability, T/C",[10],68%
same,"viability, T/C",[11],80.9%
same,"viability, T/C",[12],64.7%
same,"viability, T/C","second compound 1 µM, first compound 0.000316 µM",75.8%
same,"viability, T/C","second compound 1 µM, first compound 0.001 µM",65%
same,"viability, T/C",[13],63.7%
same,"viability, T/C",[14],52.4%
same,"viability, T/C",[15],52.4%
same,"viability, T/C",[16],54.6%
same,"viability, T/C","second compound 3.16 µM, first compound 0.000316 µM",61.9%
same,"viability, T/C","second compound 3.16 µM, first compound 0.001 µM",73.8%
same,"viability, T/C",[17],60.1%
same,"viability, T/C",[18],54.3%
same,"viability, T/C",[19],53.8%
same,"viability, T/C",[20],52%
same,"viability, T/C","second compound 10 µM, first compound 0.000316 µM",61.8%
same,"viability, T/C","second compound 10 µM, first compound 0.001 µM",59.6%
same,"viability, T/C",[21],55.9%
same,"viability, T/C",[22],48.6%
same,"viability, T/C",[23],65%
same,"viability, T/C",[24],71.9%

# Reference: PubChem BioAssay AID2060603 (Molecular Pharmacology Branch, DTP, NCI, 2025)
